Calls of active or inactive are those of the source. The rule behind the calls is not given here.
Assays:
[1] = target: T1, Peptidoglycan-N-acetylglucosamine deacetylase (Streptococcus pneumoniae (strain ATCC BAA-255 / R6)) (UniProt Q8DP63); assay: Substrate activity at Streptococcus pneumoniae Pgda at 1 mM in presence of CoCl2 or ZnCl2 by fluorescamine assay deacetylase assay
T1 sequence (whole entry): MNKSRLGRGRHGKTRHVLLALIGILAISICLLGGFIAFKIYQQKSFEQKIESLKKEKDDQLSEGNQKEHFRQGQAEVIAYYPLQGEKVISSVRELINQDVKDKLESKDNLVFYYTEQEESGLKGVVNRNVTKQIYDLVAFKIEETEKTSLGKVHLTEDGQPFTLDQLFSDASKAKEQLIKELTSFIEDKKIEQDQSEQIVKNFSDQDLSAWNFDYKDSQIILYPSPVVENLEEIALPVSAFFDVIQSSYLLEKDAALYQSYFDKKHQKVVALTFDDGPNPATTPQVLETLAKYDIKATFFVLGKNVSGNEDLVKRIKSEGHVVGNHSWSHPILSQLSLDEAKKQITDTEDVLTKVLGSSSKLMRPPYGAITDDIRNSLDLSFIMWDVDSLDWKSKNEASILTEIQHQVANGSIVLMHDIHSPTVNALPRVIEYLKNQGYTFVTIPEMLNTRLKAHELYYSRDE

[2] = target: T2, Poly-beta-1,6-N-acetyl-D-glucosamine N-deacetylase (Escherichia coli (strain K12)) (UniProt P75906); assay: Substrate activity at Escherichia coli PgaB at 1 mM in presence of CoCl2 or ZnCl2 by fluorescamine assay deacetylase assay
T2 sequence (whole entry): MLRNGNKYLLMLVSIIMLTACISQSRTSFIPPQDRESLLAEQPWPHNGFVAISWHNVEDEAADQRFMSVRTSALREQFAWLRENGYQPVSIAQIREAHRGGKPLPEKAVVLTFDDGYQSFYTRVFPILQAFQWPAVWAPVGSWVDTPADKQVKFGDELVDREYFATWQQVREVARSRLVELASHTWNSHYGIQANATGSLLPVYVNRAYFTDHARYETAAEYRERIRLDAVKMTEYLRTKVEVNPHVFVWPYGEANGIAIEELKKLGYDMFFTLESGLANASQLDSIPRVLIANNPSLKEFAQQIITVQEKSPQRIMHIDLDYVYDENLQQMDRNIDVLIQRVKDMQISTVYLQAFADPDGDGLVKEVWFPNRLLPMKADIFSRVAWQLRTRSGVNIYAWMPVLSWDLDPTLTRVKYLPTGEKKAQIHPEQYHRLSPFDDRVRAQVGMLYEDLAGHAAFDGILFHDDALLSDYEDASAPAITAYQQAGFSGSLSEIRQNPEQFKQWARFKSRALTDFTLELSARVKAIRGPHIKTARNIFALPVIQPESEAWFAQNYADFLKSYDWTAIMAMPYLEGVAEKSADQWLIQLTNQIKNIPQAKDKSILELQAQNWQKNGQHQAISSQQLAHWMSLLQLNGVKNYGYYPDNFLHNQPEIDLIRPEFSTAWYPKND

[3] = target: T3, Poly-beta-1,6-N-acetyl-D-glucosamine N-deacetylase (Escherichia coli (strain K12), UniProt P75906); assay: (§1) Inhibition of Escherichia coli PgaB expressed in Escherichia coli BL21 (DE3) cells transformed with pET28 plasmid coding for PgaB42-655 using acetoxymethyl-4-methylumbelliferone as substrate measured at 2 min intervals over 10 mins in presence of CoCl2 by fluorescence assay
T3 sequence (P75906 whole entry): T2 sequence (whole entry)

[4] = target: T4, Peptidoglycan-N-acetylglucosamine deacetylase (Streptococcus pneumoniae (strain ATCC BAA-255 / R6), UniProt Q8DP63); assay: (§2) Inhibition of Streptococcus pneumoniae Pgda expressed in Escherichia coli BL21 (DE3) cells transformed with pET28bSpPgdA232-431 plasmid using acetoxymethyl-4-methylumbelliferone as substrate measured at 5 min intervals over 60 mins in presence of CoCl2 by fluorescence assay
T4 sequence (Q8DP63 whole entry): T1 sequence (whole entry)

[5] = target: T1, Peptidoglycan-N-acetylglucosamine deacetylase (Streptococcus pneumoniae (strain ATCC BAA-255 / R6)); assay: Inhibition of Streptococcus pneumoniae Pgda expressed in Escherichia coli BL21 (DE3) cells transformed with pET28bSpPgdA232-431 plasmid at 5 mM using acetoxymethyl-4-methylumbelliferone as substrate measured at 5 min intervals over 60 mins in presence of CoCl2 by fluorescence assay
[6] = target: T3, Poly-beta-1,6-N-acetyl-D-glucosamine N-deacetylase; assay: as §1, with “using compound pre-incubated with 1Eq DTT and using” for “using”, “ZnCl2” for “CoCl2”
[7] = target: T1, Peptidoglycan-N-acetylglucosamine deacetylase (Streptococcus pneumoniae (strain ATCC BAA-255 / R6)); assay: Inhibition of Streptococcus pneumoniae Pgda expressed in Escherichia coli BL21 (DE3) cells transformed with pET28bSpPgdA232-431 plasmid at 200 to 1200 uM using acetoxymethyl-4-methylumbelliferone as substrate measured at 5 min intervals over 60 mins in presence of 6 uM ZnCl2 by fluorescence assay
[8] = target: T4, Peptidoglycan-N-acetylglucosamine deacetylase; assay: as §2, with “using compound pre-incubated with 1Eq DTT and using” for “using”, “ZnCl2” for “CoCl2”
[9] = target: T4, Peptidoglycan-N-acetylglucosamine deacetylase; assay: as §2, with “plasmid using compound pre-incubated with 1Eq DTT and” for “plasmid”
[10] = target: T1, Peptidoglycan-N-acetylglucosamine deacetylase (Streptococcus pneumoniae (strain ATCC BAA-255 / R6)); assay: Inhibition of Streptococcus pneumoniae Pgda expressed in Escherichia coli BL21 (DE3) cells transformed with pET28bSpPgdA232-431 plasmid at 200 to 1200 uM using acetoxymethyl-4-methylumbelliferone as substrate measured at 5 min intervals over 60 mins in presence of 3 uM ZnCl2 by fluorescence assay
[11] = target: T3, Poly-beta-1,6-N-acetyl-D-glucosamine N-deacetylase; assay: as §1, with “using compound pre-incubated with 1Eq DTT and using” for “using”
[12] = target: T4, Peptidoglycan-N-acetylglucosamine deacetylase; assay: Partial mixed inhibition of Streptococcus pneumoniae apo-Pgda using N,N',N\"-triacetyl chitotriose as substrate in presence of ZnCl2 by fluorescamine assay deacetylase assay based Dixon plot analysis
[13] = target: T1, Peptidoglycan-N-acetylglucosamine deacetylase (Streptococcus pneumoniae (strain ATCC BAA-255 / R6)); assay: Inhibition of Streptococcus pneumoniae Pgda expressed in Escherichia coli BL21 (DE3) cells transformed with pET28bSpPgdA232-431 plasmid at 200 to 1200 uM using acetoxymethyl-4-methylumbelliferone as substrate measured at 5 min intervals over 60 mins in presence of 200 uM ZnCl2 by fluorescence assay
[14] = target: T2, Poly-beta-1,6-N-acetyl-D-glucosamine N-deacetylase (Escherichia coli (strain K12)); assay: Substrate activity at Escherichia coli PgaB at 5 mM in presence of CoCl2 or ZnCl2 by fluorescamine assay deacetylase assay
[15] = target: T1, Peptidoglycan-N-acetylglucosamine deacetylase (Streptococcus pneumoniae (strain ATCC BAA-255 / R6)); assay: Substrate activity at Streptococcus pneumoniae Pgda at 5 mM in presence of CoCl2 or ZnCl2 by fluorescamine assay deacetylase assay
[16] = target: T1, Peptidoglycan-N-acetylglucosamine deacetylase (Streptococcus pneumoniae (strain ATCC BAA-255 / R6)); assay: Inhibition of Streptococcus pneumoniae Pgda expressed in Escherichia coli BL21 (DE3) cells transformed with pET28bSpPgdA232-431 plasmid at 10 mM using acetoxymethyl-4-methylumbelliferone as substrate measured at 5 min intervals over 60 mins in presence of CoCl2 by fluorescence assay
[17] = target: T2, Poly-beta-1,6-N-acetyl-D-glucosamine N-deacetylase (Escherichia coli (strain K12)); assay: Inhibition of Escherichia coli PgaB expressed in Escherichia coli BL21 (DE3) cells transformed with pET28 plasmid coding for PgaB42-655 at 10 mM using acetoxymethyl-4-methylumbelliferone as substrate measured at 2 min intervals over 10 mins in presence of CoCl2 by fluorescence assay

SMILES: CC(=O)N[C@H]1[C@H](OCc2ccccc2)O[C@H](CO)[C@@H](O)[C@@H]1N=[N+]=[N-]
- Activity [1]: inactive
- Activity [2]: inactive
- IC50 [3]: > 5 mM
- IC50 [4]: > 5 mM

SMILES: COP(=O)(O)C[C@H]1[C@H](OCc2ccccc2)O[C@H](COCc2ccccc2)[C@@H](O)[C@@H]1O
- inhibition [5]: inactive
- IC50 [3]: > 5 mM
- IC50 [4]: > 5 mM

SMILES: CC(=S)N[C@H]1[C@H](OCc2ccccc2)O[C@H](CO)[C@@H](O)[C@@H]1S
- IC50 [6]: 0.14 mM
- Activity [1]: inactive
- inhibition [7]: Active
- Activity [2]: inactive
- IC50 [8]: 0.011 mM
- IC50 [9]: > 1 mM
- inhibition [10]: inactive
- IC50 [11]: > 1 mM
- Ki [12]: 0.0029 mM
- inhibition [13]: Active

SMILES: COP(=O)(O)C[C@H]1[C@H](OCc2ccccc2)O[C@H](CO)[C@@H](OCc2ccccc2)[C@@H]1O
- inhibition [5]: inactive
- IC50 [3]: > 5 mM
- IC50 [4]: > 5 mM

SMILES: CC(=O)N[C@H]1[C@H](OCc2ccccc2)O[C@H](CO)[C@@H](O)[C@@H]1N
- IC50 [3]: > 10 mM
- IC50 [4]: > 10 mM
- Activity [14]: inactive
- Activity [15]: inactive

SMILES: NS(=O)(=O)C[C@H]1[C@H](OCc2ccccc2)O[C@H](CO)[C@@H](OCc2ccccc2)[C@@H]1O
- IC50 [3]: > 5 mM
- IC50 [4]: > 5 mM

SMILES: CC(=O)N[C@H]1[C@H](OCc2ccccc2)O[C@H](CO)[C@@H](O)[C@@H]1S
- IC50 [6]: 1.1 mM
- IC50 [8]: 5 mM
- IC50 [9]: > 8 mM
- IC50 [11]: > 8 mM
- Activity [14]: inactive
- Activity [15]: inactive

SMILES: COP(=O)(O)C[C@H]1[C@H](OCc2ccccc2)O[C@H](CO)[C@@H](O)[C@@H]1O
- IC50 [3]: > 10 mM
- IC50 [4]: 4.9 mM

SMILES: CS(=O)(=O)N[C@H]1[C@H](OCc2ccccc2)O[C@H](CO)[C@@H](O)[C@@H]1S
- IC50 [6]: > 1 mM
- Activity [1]: inactive
- Activity [2]: inactive
- IC50 [8]: > 1 mM
- IC50 [9]: > 1 mM
- IC50 [11]: > 1 mM

SMILES: NS(=O)(=O)C[C@H]1[C@H](OCc2ccccc2)O[C@H](CO)[C@@H](O)[C@@H]1O
- IC50 [3]: > 10 mM
- IC50 [4]: > 10 mM

SMILES: CC(=O)N[C@H]1[C@H](OCc2ccccc2)O[C@H](CO)[C@@H](O)[C@@H]1O
- IC50 [3]: > 20 mM
- IC50 [4]: 11 mM
- Activity [14]: inactive
- Activity [15]: inactive

SMILES: CC(=S)N[C@H]1[C@H](OCc2ccccc2)O[C@H](CO)[C@@H](O)[C@@H]1O
- IC50 [3]: > 10 mM
- IC50 [4]: > 10 mM
- Activity [14]: inactive
- Activity [15]: inactive

SMILES: O[C@H](CS)[C@H](O)CS
- inhibition [16]: inactive
- inhibition [17]: inactive

Reference: ChEMBL document CHEMBL4261622, “Monosaccharide inhibitors targeting carbohydrate esterase family 4 de-N-acetylases” (Bioorg Med Chem, 2018)
